One compound from patent US5683714A, “Liposomal cyclosporin pharmaceutical formulation” (NeXstar Pharmaceuticals, Inc., priority 1995, dated 1997) can be followed below.

Each structure is given as a SMILES string.

In general, IC50 refers to the concentration that gives 50% inhibition.

Test [1] concerns resistant L1210 murine leukemia cells. Briefly: Multiple drug resistance, 3H-Thymidine uptake. The note with it: Mus musculus, L1210, read-out: IC50 in Resistant Cells. Type of test: cell-based. As for the experimental part:
(§1) Multiple drug resistance (MDR) was tested in vitro using resistant and sensitive L1210 murine leukemia cells.
(§2) The final concentration of daunorubicin in each well was 0, 0.3, 1, 3, 10, 30, 100 or 1000 ng/ml. […] Fifty microliters of each daunorubicin concentration was added to one well of a flat bottom 96-well culture plate. […] Each drug combination was tested in triplicate.
(§3) The resistant and sensitive cells to be added to each well were grown overnight in a CO2 incubator at 37° C. in RPMI-1640 (10% fetal calf serum and 1% pen-strep). The cells were centrifuged at 1000 rpm for 10 minutes. The cell pellet was resuspended in RPMI-1640 (20% fetal calf serum and 2% pen-strep) and adjusted to 1×10^5 cells/ml. The cells were then added to the wells (100 μl (1×10^4 cells)/well) containing the drug combinations and incubated for 24 hours at 37° C. in a CO2 incubator. Positive control wells contained only cells and media and negative control wells contained cells, media, and 20 μl of 1.5M Tris buffer.
(§4) After 20 hours of incubation, the cells were pulsed with 0.5μ Cu of ^3 H-Thymidine per well. The samples were incubated for another 4 hours. The cells in each well were then harvested using a Skatron Harvester and counted in a beta liquid scintillation counter (LKB).

For test [2], the system named is sensitive L1210 murine leukemia cells. Briefly: Multiple drug resistance, 3H-Thymidine uptake. It counts as cell-based. The settings on record: Mus musculus, daunorubicin alone. The protocol:
as §1, §2, §3, §4

For the compound `COc1cccc2c1C(=O)c1c(O)c3c(c(O)c1C2=O)C[C@@](O)(C(C)=O)C[C@@H]3O[C@H]1C[C@H](N)[C@H](O)[C@H](C)O1` [Daunorubicin], the 50% inhibitory concentration (IC50) in test [1] turned out to be 0.722 µg/mL; in test [2], 0.47 µg/mL.
